The source of these data is paper PMC3528769, “Comparative Study of the Fatty Acid Binding Process of a New FABP from Cherax quadricarinatus by Fluorescence Intensity, Lifetime and Anisotropy” (PLoS ONE, 2012).

For test [1], the target named is T1, Cq-FABP (Cherax quadricarinatus, UniProt L0I6Z9). In words: cis-Parinaric acid fluorescence intensity titration and competitive displacement. The format is binding. The source says:
(§1) Cis-parinaric acid and DAUDA were characterized by fluorescence emission in the 380–500 nm region (λmax,em: 410 nm) and in the 480–650 nm region (λmax,em: 540 nm), respectively (excitation wavelengths were set at 320 or 335 nm for cis-parinaric acid or DAUDA, respectively). The fluorescence intensity enhancement upon binding to Cq-FABP was monitored on a Cary-Eclipse spectrofluorimeter as indicated above. All the fluorescence emission intensities were corrected for the inner-filter effect. The emission intensity of a given fluorophore in the presence of Cq-FABP was also systematically corrected for the emission intensity of the free fluorophore. The calculation of Kd,FA was performed by measuring the IC50 value (inhibition concentration 50%) characterizing each non-fluorescent FA. As DAUDA poorly binds to Cq-FABP (see results section), only cis-parinaric acid (CPA) was used for measuring IC50 values. Titration and equilibrium displacement experiments using CPA were performed in buffer C (supplemented with 10% DMSO (v/v)). For the determination of IC50 values, the number of complexes corresponding to [CPA] = 7 µM and [Cq-FABP] = 5 µM was varied by increasing the concentration of non-fluorescent FA. The IC50 value corresponds to the concentration of non-fluorescent FA that displaces 50% of CPA from the fatty acid binding site of Cq-FABP and is related to Kd,FA through the Cheng-Prusoff relationship: [drawing 2] (2)

The target of test [2] is T1, Cq-FABP. In words: BODIPY-C16 steady-state fluorescence anisotropy titration and competition. The class given is binding. As to the method:
The binding of 4,4-difluoro-5, 7-dimethyl-4-bora-3a, 4a-diaza-s-indacene-3-hexadecanoic acid (BODIPY-C16) to Cq-FABP was investigated by measuring the steady-state fluorescence anisotropy parameter using a Beacon instrument (PanVera, Madison, USA), in a cell thermostatically held at 25°C. The excitation and emission bandpass filters were centered at 488 nm (±6 nm) and 525 nm (±15 nm), respectively. Titration experiments were performed in buffer C (supplemented with 10% DMSO (v/v)) by maintening a constant concentration of BODIPY-C16 (200 nM) and by adding increasing concentrations of Cq-FABP. Using a vertical direction for the polarized excitation source, the steady-state fluorescence anisotropy (r) was calculated according to: [drawing 3] (3) where IV and IH correspond to the parallel (vertical) and perpendicular (horizontal) fluorescence emission intensity components, respectively. The fraction of BODIPY-C16/Cq-FABP complexes (i.e. the fraction of BODIPY-C16 bound to Cq-FABP), fb, was calculated using the following relationship: [drawing 4] (4) where r is the measured fluorescence anisotropy value, rf and rb correspond to the fluorescence anisotropy values of free BODIPY-C16 (ligand in the free state, measured in the absence of Cq-FABP) and Cq-FABP-bound BODIPY-C16 (ligand in the bound state, corresponding to the maximum anisotropy value found at the plateau), respectively. […] The Kd characterizing the BODIPY-C16/Cq-FABP complex (Kd,C16) was calculated by fitting the plot of fb versus [Cq-FABP] using the Graphpad Prism 5.0 software.
The fluorescence anisotropy-based assay was also used in competition experiments to calculate the Kd values (Kd,FA) characterizing non-fluorescent fatty acids. The measurement of the apparent Kd value characterizing the BODIPY-C16/Cq-FABP complex (Kd ^app ,C16) under different concentration conditions for the non-fluorescent FA allows the calculation of Kd,FA according to: [drawing 5] (5) where Kd,C16 corresponds to the Kd characterizing the BODIPY-C16/Cq-FABP complex (in the absence of any non-fluorescent FA) and Kd ^app ,C16 corresponds to the apparent dissociation constant obtained for a given concentration of non-fluorescent FA. The calculation of Kd,FA was also performed in an independent manner by measuring the IC50 value characterizing each non-fluorescent FA. In this approach, the number of complexes corresponding to [C16] = 200 nM and [Cq-FABP] = 5 µM was varied by increasing the concentration of non-fluorescent FA. The IC50 value corresponds to the concentration of non-fluorescent FA that displaces 50% of C16 from the fatty acid binding site of Cq-FABP and is related to Kd,FA through the Cheng-Prusoff relationship: [drawing 6] (6)
A general note: In fluorescence polarisation assays a small probe gives low polarisation when free and higher when bound to something large.

Test [3] addresses T1, Cq-FABP. Nature of the test: ANS fluorescence intensity titration and equilibrium displacement of ANS by fatty acids. The format is binding. As to the method: (§2) Fluorescence emission spectra were measured at 25°C on a Cary-Eclipse spectrofluorimeter (Varian, CA, USA) equipped with a thermostated cell holder, using solutions (70 µl) placed in microcuvettes (pathlength, 0.3 cm). The binding of non-fluorescent fatty acids (PA, OA, LA, EPA and DHA) to Cq-FABP was measured indirectly by equilibrium displacement experiments using ANS as a fluorescent probe, either by measuring the fluorescence emission of ANS or by measuring the FRET between tryptophan and ANS, resulting in the quenching of donor fluorescence. The excitation wavelength was then set at 296 or 350 nm for tryptophan or ANS, respectively; the slit widths and PMT voltage were adjusted to optimize the fluorescence signal at 25°C. For titration experiments, the fluorescence emission spectrum of tryptophan or ANS was measured and the integrated fluorescence signal of tryptophan (315–360 nm) or ANS (440–600 nm) was calculated. For samples containing high concentrations of ANS, the inner-filter effect was not negligible and was corrected. UV-visible absorption spectra were carried out on a Uvikon XL spectrophotometer.
The equilibrium dissociation constant (Kd,FA) relative to the binding of fatty acids (FA) to Cq-FABP was determined by competition experiments using ANS displacement and linear regression of the following relationship: [drawing 1] (1) where Kd,ANS is the dissociation constant relative to the binding of ANS to the fatty acid binding site, Kd ^app ,ANS is the apparent dissociation constant of ANS obtained in the presence of a given fatty acid concentration.

Test [4] has as its target T1, Cq-FABP. Nature of the test: Steady-state FRET between the single Trp (W49) and ANS, Trp quenching and recovery by PA. The format is binding. As to the method:
as §2

Test [5] addresses T1, Cq-FABP. Nature of the test: Time-resolved Trp fluorescence lifetime (single-photon counting) with ANS and PA. Conditions: for FRET efficiency: from lifetimes; for Δ%FRET,max based on lifetime values: without versus with 70 µM PA. The format is binding. As to the method: The distribution of fluorescence lifetimes of tryptophan was determined by monitoring the intensity decay, I(t), using the single-photon counting technique [27]–[31]. Briefly, the excitation light pulse source was a Ti:sapphire laser (Mai Tai femtosecond laser, Spectra Physics, Mountain View, CA, USA) associated with a third harmonic generator tuned to 296 nm. The laser frequency was reduced from 80 to 8 MHz using a pulse picker (Spectra Physics). Fluorescence emission was detected by a microchannel plate photomultiplier (Hamamatsu model R3809U-05) through a monochromator (ARC SpectraPro-150) set at 340 nm (Δλ = 15 nm) with the emission polarizer set at the magic angle (54.7°). A time-correlated single-photon counting SPC-430 card (Becker–Hickl, Berlin, Germany) was used for the acquisition. Experiments were performed at 25°C using 5 µM Cq-FABP in buffer C. The average fluorescence lifetime values (τm), as reported in Table 1, were calculated from the lifetime distributions recovered by the maximum entropy method, [29], [32]. For example, Cq-FABP alone was characterized by three fluorescence lifetimes (τ1 = 0.6 ns (6%), τ2 = 2.67 ns (53%), τ3 = 3.89 (41%); τm = 3.04 ns).

The target of test [6] is FABP4. Also noted: method as in PMID 11827549. Conditions: ref [6]; read-out: Kd of ANS; cited from earlier work.
Test [7] concerns the target T1, Cq-FABP. Nature of the test: DAUDA fluorescence intensity enhancement. The format is binding. The following applies: 5 µM Cq-FABP versus free DAUDA (Fig. S3A).
Description: as §1, with “The IC50 value corresponds to the concentration of non-fluorescent FA that displaces 50% of CPA from the fatty acid binding site of Cq-FABP and is related to Kd,FA through the Cheng-Prusoff relationship: [drawing 2] (2)” left out

[8] abbreviates: calculated from equilibrium displacement experiments using the fluorescence intensity of ANS (Eq. 1), read-out: Kd,FA.
The mark [9] stands for this setting: calculated from the IC50 values (Eq. 2) using the fluorescence intensity of cis-parinaric acid, 7 µM CPA, 5 µM Cq-FABP, read-out: Kd,FA.
Setting [10] is: 200 nM BODIPY-C16, 5 µM Cq-FABP, read-out: IC50 (displaces 50% of BODIPY-C16 from the fatty acid binding site).
The mark [11] stands for this setting: calculated from the IC50 values, using Eq. 6, 200 nM BODIPY-C16, 5 µM Cq-FABP, read-out: Kd,FA.
Where [12] appears, read: calculated from the Kd app,C16 values, using Eq. 5, 200 nM BODIPY-C16, read-out: Kd,FA.

Several values for one entry are separate records, joined by “and”; a condition that tells them apart may be missing. Equal values may be shown once. Read-outs that look alike come from different tables or passages of the source.

As a reminder, the IC50 is the concentration at which inhibition is half-maximal.

T1 sequence (L0I6Z9 entry or part of it): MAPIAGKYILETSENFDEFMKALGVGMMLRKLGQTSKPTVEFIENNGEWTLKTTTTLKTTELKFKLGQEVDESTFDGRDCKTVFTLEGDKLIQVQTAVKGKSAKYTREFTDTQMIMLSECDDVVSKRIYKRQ

Regarding `CC\C=C/C=C/C=C/C=C\CCCCCCCC(=O)O` [cis-parinaric acid, reference compound], the Kd in test [1] (fluorescence enhancement upon binding, 5 µM Cq-FABP, buffer C + 10% DMSO (Fig. S3B), read-out: Kd of cis-parinaric acid) stood at 31.2 µM.

In the case of `Cc1cc(C)n2c1C=C1C=CC(CCCCCCCCCCCCCCCC(=O)O)=[N+]1[B-]2(F)F` [BODIPY-C16, 4,4-difluoro-5,7-dimethyl-4-bora-3a, 4a-diaza-s-indacene-3-hexadecanoic acid, reference compound], the Kd in test [2] (direct titration, 200 nM BODIPY-C16, increasing Cq-FABP, 25°C, 10% DMSO, read-out: Kd,C16) came out at 3.1 µM.

Consider `O=S(=O)(O)c1cccc2cccc(Nc3ccccc3)c12` [ANS, 8-Anilino-1-naphthalenesulfonate], for which the Kd was 27.9 µM in test [3] (average of the Kd,ANS values from the intensity and FRET procedures, read-out: average Kd,ANS); 30 µM and ~30 µM in test [3] (direct titration, 5 µM Cq-FABP, 25°C, after removing free ANS and non specific contributions (Fig. 2B), read-out: Kd,ANS); 26 µM in test [3] (from displacement amplitude ΔI by PA plotted against [ANS] (Fig. 2D), 5 µM Cq-FABP, read-out: Kd,ANS); 27.8 µM in test [3] (y-intercept of Kd app,ANS versus [PA] linear regression (Fig. 3B), read-out: Kd,ANS); 27.6 µM in test [4] (from Δ%FRET versus [ANS] (Fig. 4D), binding to fatty acid binding site only, read-out: Kd,ANS); around 100 µM in test [4] (quenching of Trp steady-state emission by ANS, specific plus non specific binding (Fig. 4A), read-out: apparent Kd of ANS). Besides, the Kd in test [6] was 1.7 µM. The “Δ%FRET,max (plateau)” value in test [4] (steady-state fluorescence intensities, amplitude between [PA]0 and [PA]+∞ (Fig. 4D)) was determined as 10%. Also, the “Average fluorescence Lifetime, τm” value in test [5] (5 µM Cq-FABP + 5 µM ANS) is listed as 2.85 ns; in test [5] (5 µM Cq-FABP + 10 µM ANS), 2.75 ns; in test [5] (5 µM Cq-FABP + 50 µM ANS) it was 2.39 ns; in test [5] (5 µM Cq-FABP + 200 µM ANS), 2.00 ns. For the same molecule, the FRET efficiency in test [5] (5 µM Cq-FABP + 5 µM ANS) stood at 6.2%; in test [5] (5 µM Cq-FABP + 10 µM ANS) it was 9.5%; in test [5] (5 µM Cq-FABP + 50 µM ANS), 21.4%; in test [5] (5 µM Cq-FABP + 200 µM ANS), 34.2%. The “Δ%FRET,max based on lifetime values” in test [5] ([ANS] = 50 µM) was 12.5%; in test [5] ([ANS] = 200 µM) it was 11.2%.

On to `CC/C=C\C/C=C\C/C=C\C/C=C\C/C=C\C/C=C\CCC(=O)O` [DHA, cis-4,7,10,13,16,19-docosahexaenoic acid], for which the Kd in test [3] (setting [8]) is 5.8 ± 0.3 µM; in test [1] (setting [9]) it was 4.4 ± 0.8 µM; in test [2] (setting [11]) it was 7.4 ± 0.7 µM; in test [2] (setting [12]), 6.6 ± 0.5 µM. For the same molecule, the IC50 in test [2] (setting [10]) stood at 7.67 µM.

On to `CN(C)c1cccc2c(S(=O)(=O)NCCCCCCCCCCC(=O)O)cccc12` [DAUDA, 11-((5-dimethylaminonaphthalene-1-sulphonyl)amino)-undecanoic acid, reference compound], for which, in test [7], the “binding of DAUDA by fluorescence enhancement” value is “does not bind or only poorly binds”. In test [2] (setting [10]), the IC50 worked out at 263 µM. Besides, the Kd in test [2] (from IC50 according to the Cheng-Prusoff relationship, 200 nM BODIPY-C16, 5 µM Cq-FABP, read-out: apparent Kd of Cq-FABP/DAUDA complex) was around 250 µM.

For `CCCCCCCC/C=C\CCCCCCCC(=O)O` [OA, oleic acid], the Kd in test [3] is 2.4 ± 0.4 µM; in test [1], 1.3 ± 0.6 µM; in test [2] (Kd,FA, calculated from the IC50 values, using Eq. 6, 200 nM BODIPY-C16, 5 µM Cq-FABP), 2.15 ± 0.4 µM; in test [2] (Kd,FA, calculated from the Kd app,C16 values, using Eq. 5, 200 nM BODIPY-C16), 2.6 ± 0.3 µM. This molecule came in with an IC50 in test [2] of 2.23 µM.

`CC/C=C\C/C=C\C/C=C\C/C=C\C/C=C\CCCC(=O)O` [EPA, cis-5,8,11,14,17-eicosapentaenoic acid]: the Kd in test [3] (setting [8]) is 2.9 ± 0.3 µM; in test [2] (setting [11]) it was 2.2 ± 0.4 µM; in test [2] (setting [12]) it was 3.5 ± 0.4 µM. For the same molecule, the IC50 in test [2] (setting [10]) came to 2.29 µM.

With `CCCCC/C=C\C/C=C\CCCCCCCC(=O)O` [LA, linoleic acid], the Kd was 3.1 ± 0.5 µM in test [3] (setting [8]), 3.3 ± 0.7 µM in test [1] (setting [9]), 3.4 ± 0.4 µM in test [2] (setting [11]) and 3 ± 0.4 µM in test [2] (setting [12]). The IC50 in test [2] (setting [10]) amounted to 3.53 µM.
